Test results published in ChEMBL document CHEMBL4382233, “Discovery of novel arylethenesulfonyl fluorides as potential candidates against methicillin-resistant of Staphylococcus aureus (MRSA) for overcoming multidrug resistance of bacterial infections” (2019).
In brackets after ≈: the same amount, converted by molar mass. Activity calls are given as the source filed them. The calls are words filed in the database; no cut-off is given here.

Columns and labels:
Staphylococcus aureus [1] = test: Antibiofilm activity against methicillin-resistant Staphylococcus aureus planktonic biofilm assessed as optical density at 492 nm at MIC after 24 hrs by crystal violet staining-based UV-visible spectrophotometric analysis; type: functional
Staphylococcus aureus [2] = test: Antibacterial activity against methicillin-resistant Staphylococcus aureus after overnight incubation by micro broth dilution analysis; type: functional
[3] = tested on: Staphylococcus epidermidis; test: Antibacterial activity against methicillin-resistant Staphylococcus epidermidis assessed as zone of inhibition at 400 ng/mL after 24 hrs by agar disc diffusion method; type: functional; conditions: read-out: IZ
Staphylococcus aureus [4] = test: Induction of cellular content release in methicillin-resistant Staphylococcus aureus assessed as DNA content by measuring optical density at 260 nm at MIC after 240 mins by UV-visible spectrophotometric analysis; type: functional
[5] = tested on: Staphylococcus haemolyticus; test: Antibacterial activity against methicillin-resistant Staphylococcus haemolyticus assessed as zone of inhibition at 50 ug/mL after 24 hrs by agar disc diffusion method; type: functional; conditions: read-out: IZ
[6] = tested on: Staphylococcus epidermidis; test: Antibacterial activity against methicillin-resistant Staphylococcus epidermidis assessed as zone of inhibition at 20 ug/mL after 24 hrs by agar disc diffusion method; type: functional; conditions: read-out: IZ
Staphylococcus aureus [7] = test: Antibacterial activity against methicillin-resistant Staphylococcus aureus assessed as zone of inhibition at 400 ng/mL after 24 hrs by agar disc diffusion method; type: functional; conditions: read-out: IZ
Staphylococcus aureus [8] = test: Antibacterial activity against methicillin-resistant Staphylococcus aureus assessed as zone of inhibition at 800 ng/mL after 24 hrs by agar disc diffusion method; type: functional; conditions: read-out: IZ
[9] = tested on: Staphylococcus epidermidis; test: Antibacterial activity against methicillin-resistant Staphylococcus epidermidis assessed as zone of inhibition at 800 ng/mL after 24 hrs by agar disc diffusion method; type: functional; conditions: read-out: IZ
Staphylococcus aureus [10] = test: Antibiofilm activity against methicillin-resistant Staphylococcus aureus at MIC after 24 hrs by crystal violet staining-based UV-visible spectrophotometric analysis; type: functional, organism-based
[11] = tested on: Staphylococcus epidermidis; test: Antibacterial activity against methicillin-resistant Staphylococcus epidermidis assessed as zone of inhibition at 200 ng/mL after 24 hrs by agar disc diffusion method; type: functional; conditions: read-out: IZ
Staphylococcus aureus [12] = test: Antibacterial activity against methicillin-resistant Staphylococcus aureus assessed as zone of inhibition at 200 ng/mL after 24 hrs by agar disc diffusion method; type: functional; conditions: read-out: IZ
Staphylococcus aureus [13] = test: Antibacterial activity against methicillin-resistant Staphylococcus aureus assessed as zone of inhibition at 50 ug/mL after 24 hrs by agar disc diffusion method; type: functional; conditions: read-out: IZ
[14] = tested on: Staphylococcus haemolyticus; test: Antibacterial activity against methicillin-resistant Staphylococcus haemolyticus after overnight incubation by micro broth dilution analysis; type: functional
[15] = tested on: Staphylococcus epidermidis; test: Antibacterial activity against methicillin-resistant Staphylococcus epidermidis after overnight incubation by micro broth dilution analysis; type: functional
Staphylococcus aureus [16] = test: Induction of pore formation in methicillin-resistant Staphylococcus aureus cell membrane assessed as increase in ferricyanide mediated potassium efflux after 2 hrs by DCPIP dye-based cyclic voltammetric analysis; type: functional, organism-based
[17] = tested on: Staphylococcus haemolyticus; test: Antibacterial activity against methicillin-resistant Staphylococcus haemolyticus assessed as zone of inhibition at 200 ng/mL after 24 hrs by agar disc diffusion method; type: functional; conditions: read-out: IZ
Staphylococcus aureus [18] = test: Induction of pore formation in methicillin-resistant Staphylococcus aureus cell membrane assessed as increase in ferricyanide mediated cellular leakage after 2 hrs by DCPIP dye-based cyclic voltammetric analysis; type: functional, organism-based
Staphylococcus aureus [19] = test: Induction of pore formation in methicillin-resistant Staphylococcus aureus cell membrane assessed as increase in ferricyanide mediated DNA damage after 2 hrs by DCPIP dye-based cyclic voltammetric analysis; type: functional, organism-based
[20] = tested on: Staphylococcus haemolyticus; test: Antibacterial activity against methicillin-resistant Staphylococcus haemolyticus assessed as zone of inhibition at 400 ng/mL after 24 hrs by agar disc diffusion method; type: functional; conditions: read-out: IZ
[21] = tested on: Staphylococcus haemolyticus; test: Antibacterial activity against methicillin-resistant Staphylococcus haemolyticus assessed as zone of inhibition at 800 ng/mL after 24 hrs by agar disc diffusion method; type: functional; conditions: read-out: IZ
Staphylococcus aureus [22] = test: Antibiofilm activity against methicillin-resistant Staphylococcus aureus at 2 times MIC after 24 hrs by crystal violet staining-based UV-visible spectrophotometric analysis; type: functional, organism-based
Staphylococcus aureus [23] = test: Antibiofilm activity against methicillin-resistant Staphylococcus aureus assessed as optical density at 492 nm at 1 to 2 times MIC after 24 hrs by crystal violet staining-based UV-visible spectrophotometric analysis; type: functional

| Compound | OD (Staphylococcus aureus [1]) | MIC99 (Staphylococcus aureus [2]) [µg/mL] | zone of inhibition at 0.4 µg/mL [3] [mm] | OD (Staphylococcus aureus [4]) | zone of inhibition at 50 µg/mL [5] [mm] | zone of inhibition at 20 µg/mL [6] [mm] | zone of inhibition at 0.4 µg/mL (Staphylococcus aureus [7]) [mm] | zone of inhibition at 0.8 µg/mL (Staphylococcus aureus [8]) [mm] | zone of inhibition at 0.8 µg/mL [9] [mm] | Activity (Staphylococcus aureus [10]) | zone of inhibition at 0.2 µg/mL [11] [mm] | zone of inhibition at 0.2 µg/mL (Staphylococcus aureus [12]) [mm] | zone of inhibition at 50 µg/mL (Staphylococcus aureus [13]) [mm] | MIC99 [14] [µg/mL] | MIC99 [15] [µg/mL] | Activity (Staphylococcus aureus [22]) | also measured |
| --- | --- | --- | --- | --- | --- | --- | --- | --- | --- | --- | --- | --- | --- | --- | --- | --- | --- |
| O=S(=O)(F)/C=C/c1ccc(C(F)(F)F)nc1 | 0.815 | 0.811 (≈ 3.18 µM) | 5.1 | 1.67 | 5.5 | 8.5 | 7.2 | 11.2 | 7.2 | Active | 4.2 | 5.1 | 12.2 | 40 (≈ 157 µM) | 0.838 (≈ 3.28 µM) |  |  |
| O=S(=O)(F)/C=C/c1cc(Cl)cc(Cl)c1 | 0.825 | 0.812 (≈ 3.18 µM) |  | 1.34 | 13.1 | 4.4 | 10.2 | 14.2 |  | Active |  | 6.2 | 20.1 | 16.3 (≈ 63.9 µM) | 48.1 (≈ 188 µM) |  | Activity (Staphylococcus aureus [16]): Active; zone of inhibition at 0.2 µg/mL [17]: 0 mm; Activity (Staphylococcus aureus [18]): Active; Activity (Staphylococcus aureus [19]): Active; zone of inhibition at 0.4 µg/mL [20]: 3.3 mm; zone of inhibition at 0.8 µg/mL [21]: 5.1 mm |
| O=S(=O)(F)/C=C/c1cccc(O)c1 |  | 0.841 (≈ 4.16 µM) | 5.3 | 1.52 | 4.5 | 7.4 | 4.1 | 6.3 | 7.4 |  | 4.2 | 3.5 | 12.2 | 58.2 (≈ 288 µM) | 0.83 (≈ 4.1 µM) | Active |  |
| CS(=O)(=O)c1cccc(/C=C/S(=O)(=O)F)c1 | 0.612 | 0.81 (≈ 3.06 µM) |  | 1.86 | 6.3 | 6.2 | 7.1 | 10.2 |  | Active |  | 6.4 | 10 | 39.1 (≈ 148 µM) | 44.2 (≈ 167 µM) |  | OD (Staphylococcus aureus [23]): 0.61; Activity (Staphylococcus aureus [16]): Active; Activity (Staphylococcus aureus [18]): Active; Activity (Staphylococcus aureus [19]): Active |
| CC(C)S(=O)(=O)c1ccc(/C=C/S(=O)(=O)F)cc1 | 0.6 | 0.808 (≈ 2.76 µM) |  | 1.78 | 5.2 | 6.2 | 8.1 | 10.1 |  | Active |  | 6.2 | 9 | 41.2 (≈ 141 µM) | 41.4 (≈ 142 µM) |  |  |
| O=[N+]([O-])c1cccc(/C=C/S(=O)(=O)F)c1 |  | 0.843 (≈ 3.65 µM) | 6.2 | 1.45 | 6.4 | 7.4 | 6.1 | 9.7 | 7.2 |  | 5.2 | 5.2 | 9.1 | 61.6 (≈ 266 µM) | 0.831 (≈ 3.59 µM) | Active |  |
| O=S(=O)(F)/C=C/c1cccc2ccccc12 |  | 0.82 (≈ 3.47 µM) |  | 1.48 | 4.1 | 5.5 | 6.2 | 9.2 |  |  |  | 4.2 | 9.2 | 51 (≈ 216 µM) | 47 (≈ 199 µM) | Active |  |
| COc1cccc(/C=C/S(=O)(=O)F)c1 |  | 0.842 (≈ 3.89 µM) |  | 1.56 | 6.3 | 4.3 | 5.2 | 9.1 |  |  |  | 4.1 | 9.1 | 63.2 (≈ 292 µM) | 55.2 (≈ 255 µM) | Active |  |
| Cc1cc(/C=C/S(=O)(=O)F)ccc1Br |  | 0.81 (≈ 2.9 µM) |  | 1.61 | 5.3 | 6.3 | 8.2 | 10.4 |  |  |  | 6.2 | 12 | 57.2 (≈ 205 µM) | 50 (≈ 179 µM) | Active |  |
| O=S(=O)(F)/C=C/c1ccc(Cl)cc1 | 0.66 | 0.818 (≈ 3.71 µM) | 7.2 | 1.28 | 7.2 | 10.3 | 8.2 | 10 | 8.4 | Active | 5.2 | 6.3 | 8.2 | 0.846 (≈ 3.83 µM) | 0.83 (≈ 3.76 µM) |  | OD (Staphylococcus aureus [23]): 0.66; Activity (Staphylococcus aureus [16]): Active; zone of inhibition at 0.2 µg/mL [17]: 4.1 mm; Activity (Staphylococcus aureus [18]): Active; Activity (Staphylococcus aureus [19]): Active; zone of inhibition at 0.4 µg/mL [20]: 5.1 mm; zone of inhibition at 0.8 µg/mL [21]: 71 mm |
| O=[N+]([O-])c1ccc(/C=C/S(=O)(=O)F)cc1 |  | 0.823 (≈ 3.56 µM) |  | 1.35 | 7.3 | 6.2 | 7.2 | 10.1 |  |  |  | 5.1 | 8.12 | 0.833 (≈ 3.6 µM) | 58.2 (≈ 252 µM) | Active | zone of inhibition at 0.2 µg/mL [17]: 4.1 mm; zone of inhibition at 0.4 µg/mL [20]: 5.2 mm; zone of inhibition at 0.8 µg/mL [21]: 7.4 mm |
| COc1ccccc1/C=C/S(=O)(=O)F |  | 69.1 (≈ 319 µM) | 7.2 |  | 12.2 | 7.2 |  |  | 8.4 |  | 5.1 |  | 5.2 | 0.837 (≈ 3.87 µM) | 0.829 (≈ 3.83 µM) | Active | zone of inhibition at 0.2 µg/mL [17]: 3.2 mm; zone of inhibition at 0.4 µg/mL [20]: 5.2 mm; zone of inhibition at 0.8 µg/mL [21]: 7.1 mm |
| CC(=O)c1cccc(/C=C/S(=O)(=O)F)c1 |  | 0.851 (≈ 3.73 µM) |  | 1.28 | 8.2 | 3.3 | 7.5 | 8.1 |  |  |  | 5.2 | 10.1 | 0.843 (≈ 3.69 µM) | 55.6 (≈ 244 µM) | Active | Activity (Staphylococcus aureus [16]): Active; zone of inhibition at 0.2 µg/mL [17]: 4.2 mm; Activity (Staphylococcus aureus [18]): Active; Activity (Staphylococcus aureus [19]): Active; zone of inhibition at 0.4 µg/mL [20]: 5.2 mm; zone of inhibition at 0.8 µg/mL [21]: 6.2 mm |
| GENTAMICIN | 0.808 |  |  |  |  |  |  |  |  |  |  |  |  |  |  | Active |  |
| CS(=O)(=O)c1ccc(/C=C/S(=O)(=O)F)cc1 | 0.718 | 15.1 (≈ 56.9 µM) |  | 1.45 |  | 4.2 | 5.2 | 7.1 |  | Active |  | 4.1 | 10.3 | 43.2 (≈ 163 µM) | 50 (≈ 189 µM) |  |  |
| Cc1ccc(/C=C/S(=O)(=O)F)cc1 | 0.815 | 0.836 (≈ 4.18 µM) |  | 1.48 | 6.3 | 6.4 | 5.2 | 7.1 |  | Active |  | 4.1 | 10.3 | 40.1 (≈ 201 µM) | 44.2 (≈ 221 µM) |  |  |
| Cc1cc(C)cc(/C=C/S(=O)(=O)F)c1 |  | 40.2 (≈ 188 µM) | 5.2 | 1.37 | 3.5 | 9.2 |  |  | 9.8 |  | 3.3 |  | 7.2 | 60.2 (≈ 281 µM) | 0.818 (≈ 3.82 µM) | Active |  |
| O=C(O)c1cn(C2CC2)c2cc(N3CCNCC3)c(F)cc2c1=O [CIPROFLOXACIN] | 0.915 |  |  |  |  |  |  |  |  |  |  |  |  |  |  | Active |  |
